According to ChEMBL document CHEMBL4002640, “Discovery of MK-1832, a Kv1.5 inhibitor with improved selectivity and pharmacokinetics” (Bioorg Med Chem Lett, 2017):
pIC50: −log10 of the molar value.

What was measured:
[1] = target: KCNQ1/KCNE1 (IKs) (Homo sapiens, UniProt P15382+P51787); assay: Inhibition of human KCNQ1/KCNE1 expressed in HEK293 cells assessed as reduction in slowly activating delayed rectifier cardiac potassium current at 10 uM by patch clamp electrophysiology method; type: cell-based; details: HEK293 cells expressing human KCNQ1/KCNE1
[2] = target: T1, Potassium voltage-gated channel subfamily A member 5 (Homo sapiens, UniProt P22460); assay: Inhibition of Kv1.5 (unknown origin)
[3] = target: T2, Voltage-gated inwardly rectifying potassium channel KCNH2 (Homo sapiens, UniProt Q12809); assay: Displacement of [3H]-MK499 from human ERG IKr channel expressed in HEK293 cell membranes
[4] = species on record: Homo sapiens; assay: Substrate activity at human P-gp assessed as efflux ratio
[5] = Metabolic stability in human hepatocytes up to 3 hrs by mass spectrometry; type: ADME, cell-based, Hepatocyte
[6] = Drug metabolism in human hepatocytes assessed as oxidation of the A/B ring nitrogens up to 3 hrs by mass spectrometry; type: ADME, cell-based, Hepatocyte
[7] = Drug metabolism in human hepatocytes assessed as oxidation of the ethane at the center up to 3 hrs by mass spectrometry; type: ADME, cell-based, Hepatocyte
[8] = Selectivity index, ratio of IC50 for human KCNQ1/KCNE1 IKs channel expressed in HEK293 cells to IC50 for Kv1.5 IKur channel in human atrial myocytes
[9] = target: T3, A-type voltage-gated potassium channel KCND3 (Homo sapiens, UniProt Q9UK17); assay: Inhibition of Kv4.3 (unknown origin) assessed as reduction in transient outward potassium current by high throughput clamp method
T3 sequence (Q9UK17 whole entry): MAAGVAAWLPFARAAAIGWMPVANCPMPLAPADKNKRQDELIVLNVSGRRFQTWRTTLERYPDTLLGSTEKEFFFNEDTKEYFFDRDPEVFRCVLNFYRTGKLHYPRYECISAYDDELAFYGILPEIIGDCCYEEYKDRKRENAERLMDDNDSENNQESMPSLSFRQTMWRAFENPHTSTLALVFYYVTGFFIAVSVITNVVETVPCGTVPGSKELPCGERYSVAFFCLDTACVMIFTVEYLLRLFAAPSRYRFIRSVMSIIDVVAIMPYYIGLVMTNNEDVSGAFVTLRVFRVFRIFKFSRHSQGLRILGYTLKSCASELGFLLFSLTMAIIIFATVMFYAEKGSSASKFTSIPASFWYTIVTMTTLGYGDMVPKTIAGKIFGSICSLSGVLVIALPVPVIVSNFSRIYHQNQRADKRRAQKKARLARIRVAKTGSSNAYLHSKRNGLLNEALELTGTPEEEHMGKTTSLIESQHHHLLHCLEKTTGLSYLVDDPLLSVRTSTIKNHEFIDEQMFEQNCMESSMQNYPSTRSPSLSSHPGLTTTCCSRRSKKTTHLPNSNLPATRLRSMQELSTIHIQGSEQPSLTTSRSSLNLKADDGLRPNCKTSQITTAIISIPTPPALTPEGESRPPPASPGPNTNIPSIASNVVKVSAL

[10] = target: Sodium channel protein type 5 subunit alpha (Homo sapiens, UniProt Q14524); assay: Inhibition of SCN5a (unknown origin) assessed as reduction in sodium current at 10 uM by voltage/ion probe reader method
[11] = test system: Canis familiaris; assay: Anti-atrial fibrillation activity in iv dosed anesthetized Mongrel dog assessed as increase in atrial refractory period at 400 ms of basic cycle length administered as 60 mins infusion measured up to 60 mins by electrophysiology method; type: functional, Canis lupus familiaris
[12] = test system: Canis familiaris; assay: Effect on ventricular refractory period in iv dosed anesthetized Mongrel dog assessed as threshold change in ventricular refractory period at 400 ms of basic cycle length administered as 60 mins infusion measured up to 60 mins by electrophysiology method; type: ADME, organism-based, Canis lupus familiaris; details: in vivo, 1 h
[13] = target: T2, Voltage-gated inwardly rectifying potassium channel KCNH2; assay: Inhibition of human ERG expressed in CHOK1 cells assessed as reduction in rapidly activating delayed rectifier cardiac potassium current by whole-cell voltage-patch clamp assay; type: cell-based
[14] = test system: Canis familiaris; assay: Selectivity index, ratio of compound effect for anti-atrial fibrillation activity in iv dosed anesthetized Mongrel dog assessed as increase in atrial refractory period to compound effect on ventricular refractory period in iv dosed anesthetized Mongrel dog; parameters: species or system Canis lupus familiaris
[15] = target: Voltage-gated potassium channel, IKs; KCNQ1(Kv7.1)/KCNE1(MinK) (Homo sapiens, UniProt P15382+P51787); assay: Inhibition of human KCNQ1/KCNE1 expressed in HEK293 cells assessed as reduction in slowly activating delayed rectifier cardiac potassium current by patch clamp electrophysiology method; type: cell-based
[16] = target: T1, Potassium voltage-gated channel subfamily A member 5; assay: Inhibition of Kv1.5 mediated ultra-rapid delayed rectifier current Ikur in human atrial myocytes by voltage-patch clamp electrophysiology method; type: cell-based

KCNQ1/KCNE1 (IKs), sequence (P51787 whole entry): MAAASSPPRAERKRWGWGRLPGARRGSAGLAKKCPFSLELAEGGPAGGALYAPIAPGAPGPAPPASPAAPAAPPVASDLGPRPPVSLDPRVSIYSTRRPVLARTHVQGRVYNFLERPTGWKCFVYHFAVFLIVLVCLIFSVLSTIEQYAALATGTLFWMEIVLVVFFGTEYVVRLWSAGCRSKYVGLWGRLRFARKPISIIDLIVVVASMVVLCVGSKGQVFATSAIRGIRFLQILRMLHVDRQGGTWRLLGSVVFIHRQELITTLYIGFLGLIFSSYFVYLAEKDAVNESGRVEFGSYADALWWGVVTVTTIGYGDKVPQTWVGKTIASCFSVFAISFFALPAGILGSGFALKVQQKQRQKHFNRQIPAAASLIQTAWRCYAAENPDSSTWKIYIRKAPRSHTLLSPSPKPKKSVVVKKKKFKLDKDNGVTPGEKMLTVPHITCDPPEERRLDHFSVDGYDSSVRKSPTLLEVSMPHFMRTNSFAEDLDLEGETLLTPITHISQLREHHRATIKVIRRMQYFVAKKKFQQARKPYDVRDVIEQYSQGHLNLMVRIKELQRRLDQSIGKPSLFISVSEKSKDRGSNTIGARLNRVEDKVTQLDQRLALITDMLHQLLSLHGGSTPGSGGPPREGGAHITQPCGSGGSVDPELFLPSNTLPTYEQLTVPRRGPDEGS
T1 sequence (P22460 whole entry): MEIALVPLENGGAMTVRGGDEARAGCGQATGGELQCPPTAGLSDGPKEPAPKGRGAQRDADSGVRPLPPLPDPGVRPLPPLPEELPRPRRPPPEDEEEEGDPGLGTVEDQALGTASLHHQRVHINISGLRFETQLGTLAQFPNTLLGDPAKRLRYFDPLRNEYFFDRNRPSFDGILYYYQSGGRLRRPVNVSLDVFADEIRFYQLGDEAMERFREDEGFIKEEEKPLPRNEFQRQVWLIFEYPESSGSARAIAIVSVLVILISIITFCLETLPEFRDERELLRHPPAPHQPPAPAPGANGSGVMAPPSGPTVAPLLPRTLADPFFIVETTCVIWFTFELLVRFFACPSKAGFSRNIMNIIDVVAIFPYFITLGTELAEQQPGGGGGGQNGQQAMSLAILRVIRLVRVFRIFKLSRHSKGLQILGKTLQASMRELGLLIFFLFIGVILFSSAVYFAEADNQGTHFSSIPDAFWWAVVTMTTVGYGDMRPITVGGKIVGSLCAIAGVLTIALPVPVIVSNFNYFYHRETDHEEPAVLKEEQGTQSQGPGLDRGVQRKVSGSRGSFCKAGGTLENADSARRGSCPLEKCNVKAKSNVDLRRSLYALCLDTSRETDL
T2 sequence (Q12809 whole entry): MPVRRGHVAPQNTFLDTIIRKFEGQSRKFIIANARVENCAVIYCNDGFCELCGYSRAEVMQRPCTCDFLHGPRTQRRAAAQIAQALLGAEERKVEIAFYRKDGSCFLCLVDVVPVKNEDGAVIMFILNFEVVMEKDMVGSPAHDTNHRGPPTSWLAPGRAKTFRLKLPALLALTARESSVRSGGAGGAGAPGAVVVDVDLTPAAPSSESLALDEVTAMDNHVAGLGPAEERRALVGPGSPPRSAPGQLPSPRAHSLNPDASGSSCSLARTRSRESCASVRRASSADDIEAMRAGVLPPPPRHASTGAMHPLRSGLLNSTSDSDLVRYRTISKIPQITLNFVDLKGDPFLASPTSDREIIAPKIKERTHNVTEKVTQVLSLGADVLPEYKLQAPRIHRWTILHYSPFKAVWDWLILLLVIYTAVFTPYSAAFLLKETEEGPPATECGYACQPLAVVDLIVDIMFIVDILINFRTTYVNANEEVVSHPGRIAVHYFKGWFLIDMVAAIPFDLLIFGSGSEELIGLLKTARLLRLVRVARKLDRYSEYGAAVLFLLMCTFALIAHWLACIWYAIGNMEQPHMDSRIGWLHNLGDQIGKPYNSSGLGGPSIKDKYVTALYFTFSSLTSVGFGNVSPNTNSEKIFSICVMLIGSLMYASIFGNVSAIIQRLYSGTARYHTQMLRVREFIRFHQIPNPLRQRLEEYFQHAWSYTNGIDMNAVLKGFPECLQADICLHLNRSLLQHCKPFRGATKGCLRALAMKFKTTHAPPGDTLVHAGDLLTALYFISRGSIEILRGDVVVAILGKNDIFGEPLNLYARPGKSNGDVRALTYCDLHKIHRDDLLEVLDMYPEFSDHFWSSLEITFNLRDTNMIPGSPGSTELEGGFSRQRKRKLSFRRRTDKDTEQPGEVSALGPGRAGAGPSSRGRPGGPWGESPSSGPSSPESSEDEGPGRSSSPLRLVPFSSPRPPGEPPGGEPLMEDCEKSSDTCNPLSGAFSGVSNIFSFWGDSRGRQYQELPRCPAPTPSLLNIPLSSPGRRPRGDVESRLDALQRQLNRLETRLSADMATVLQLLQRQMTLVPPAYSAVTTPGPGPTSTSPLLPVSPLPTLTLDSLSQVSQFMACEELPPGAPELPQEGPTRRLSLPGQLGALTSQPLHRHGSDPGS
Voltage-gated potassium channel, IKs; KCNQ1(Kv7.1)/KCNE1(MinK), sequence (P51787 whole entry): as the sequence (P51787 whole entry) above

inhibition at 10 µM [1] [%]	pIC50 [2]	SMILES	pIC50 [3]	other results
	5.54	N#Cc1cccc(-c2cccc(Cl)c2CC(c2cccnc2)c2cccnc2)c1	5.59	
36	7.52	Clc1cccc(-c2ncccc2CC(c2cccnc2)c2cccnc2)c1	< 4.52	
4.1	6.55	OC(c1cccnc1-c1cccc(Cl)c1)C(c1cccnc1)c1cccnc1 (racemic)	< 4.52	
61	6.79	CN(C)C(=O)c1cccc(-c2ncccc2CC(c2ccnc(N)n2)c2cccnc2F)c1 (racemic)	< 4.52	
57	7.21	Nc1cccc(C(Cc2cccnc2-c2cc(Cl)cc(Cl)c2)c2cccnc2)n1 (stereo unspecified)	4.99	
	6.63	OC(c1cccnc1-c1cc(Cl)cc(Cl)c1)C(c1cccnc1)c1ccccn1 (mixture of isomers)	< 4.52	Ratio [4]: 1.1
15	7.39	COc1cccc(-c2ncccc2CC(c2cccnc2)c2cccnc2)c1		
	5.80	CS(=O)(=O)Nc1cccc(-c2cc(F)ccc2CC(c2cccnc2)c2cccnc2)n1		
	< 5.00	Fc1ccc(CC(c2cccnc2)c2cccnc2)c(-c2cn[nH]c2)c1		
-0.5		OC(c1cccnc1-c1ccccc1Cl)C(c1cccnc1)c1cccnc1 (stereo unspecified)	< 4.52	Ratio [4]: 28
	5.89	Fc1ccc(CC(c2cccnc2)c2cccnc2)c(-c2cccc(C(F)(F)F)c2)c1	5.65	
0.1	6.83	CC(=O)NC(c1ccccc1-c1cc(Cl)cc(Cl)c1)C(c1cccnc1)c1cccnc1 (stereo unspecified)	< 4.52	Ratio [4]: 51
67	7.48	FC(F)(F)Oc1cccc(-c2ncccc2CC(c2cccnc2)c2cccnc2)c1	4.90	
-3.3	6.96	OC(c1cccnc1-c1cccc(Cl)c1Cl)C(c1cccnc1)c1cccnc1 (racemic)		Ratio [4]: 17
42	6.24	CS(=O)(=O)Nc1cccc(-c2cc(F)ccc2CC(c2cccnc2)c2cccnc2)c1		
	5.86	c1ccc(-c2ccccc2CC(c2cccnc2)c2cccnc2)cc1	5.12	
47	6.87	N#Cc1cccc(-c2cc(F)ccc2CC(c2cccnc2)c2cccnc2)c1	4.99	Ratio [4]: 0.9
-14	6.54	O[C@@H](c1cccnc1-c1cccc(C(F)(F)F)c1)C(c1cccnc1)c1cccnc1	< 4.52	Ratio [4]: 7
	8.05	CS(=O)(=O)Nc1cccc([C@H](c2ccc(F)cc2)C(c2cccnc2)c2cccnc2)n1	< 4.52	Ratio IC50 [8]: 70; pIC50 [9]: 5.64; inhibition (INH) [10]: Not Active; EC10 [11]: 31 nM; Activity [12]: 6 to 7 µM; pIC50 [13]: 3.96; Selectivity Index [14]: 210; pIC50 [15]: 6.10; Stability [5]: Stable; pIC50 [16]: 7.96
20	6.82	Nc1cccc(C(c2cccnc2)C(O)c2cccnc2-c2cc(Cl)cc(Cl)c2)n1 (mixture of isomers)	< 4.52	Ratio [4]: 3.4

More lines, now with the values behind:

SMILES	inhibition at 10 µM [1] [%]	pIC50 [2]	pIC50 [3]	other results
Cc1cc(F)ccc1-c1ccccc1C(C#N)C(c1cccnc1)c1cccnc1 (stereo unspecified)	9.2	6.86		
c1cncc(-c2ccccc2CC(c2cccnc2)c2cccnc2)c1	22	7.19		
Fc1ccc(CC(c2cccnc2)c2cccnc2)c(C2CC2)c1		< 5.00		
Clc1ccccc1-c1ncccc1CC(c1cccnc1)c1cccnc1	24	7.64	< 4.52	
OC(c1cccnc1-c1cccc(Cl)c1)C(c1cccnc1)c1ncco1 (mixture of isomers)	16	6.56		
CN(C)C(=O)c1cccc(-c2ccccc2CC(c2cccnc2)c2cccnc2)c1	26	7.19		
Clc1ccccc1-c1ncccc1CC(c1cccnc1)c1cccnc1Cl (stereo unspecified)	80	7.59		
c1cncc(C(Cc2ccccc2-c2ccncc2)c2cccnc2)c1		6.35	4.66	
OC(Cc1cccnc1-c1cccc(C(F)(F)F)c1)(c1cccnc1F)c1cccnc1F	16	6.71		Stability [5]: Stable
CN(C)C(=O)c1cccc(-c2ccc(F)cc2CC(c2cccnc2)c2cccnc2)c1				Drug metabolism [6]: Metabolite_Detected; Drug metabolism [7]: Metabolite_Detected; Stability [5]: Unstable
FC(F)(F)c1cccc(-c2ncccc2CC(c2cccnc2)c2cccnc2)c1	23	7.08	< 4.52	
c1cncc(C(Cc2ccccc2-c2cncc3ccccc23)c2cccnc2)c1	77	6.88	4.92	
CN(c1cccnc1)c1ncccc1CC(c1cccnc1)c1cccnc1	5	7.05	< 4.52	
Nc1cccc(C(Cc2cccnc2-c2cccc(C(F)(F)F)c2)c2cccnc2)n1 (stereo unspecified)	42	7.25		
OC(Cc1cccnc1-c1cc(Cl)cc(Cl)c1)(c1cccnc1)c1cccnc1	10	7.08	< 4.52	Ratio [4]: 6.8
